# According to patent US20220002806A1, “BIOMARKER” (ERBER AKTIENGESELLSCHAFT, priority 2018, published 2022):
# How the values were obtained:
# [1] = Zinedine et al. 2007; cited from earlier work
# estrogen receptors α = estrogen receptors α (Homo sapiens, UniProt P03372); conditions: Zinedine et al. 2007; cited from earlier work
# pregnane X receptor = molecular target: T1, pregnane X receptor (Homo sapiens, UniProt O75469); conditions: in vitro; Ayed-Boussema et al. 2011; cited from earlier work
# T1 sequence (O75469 1-434): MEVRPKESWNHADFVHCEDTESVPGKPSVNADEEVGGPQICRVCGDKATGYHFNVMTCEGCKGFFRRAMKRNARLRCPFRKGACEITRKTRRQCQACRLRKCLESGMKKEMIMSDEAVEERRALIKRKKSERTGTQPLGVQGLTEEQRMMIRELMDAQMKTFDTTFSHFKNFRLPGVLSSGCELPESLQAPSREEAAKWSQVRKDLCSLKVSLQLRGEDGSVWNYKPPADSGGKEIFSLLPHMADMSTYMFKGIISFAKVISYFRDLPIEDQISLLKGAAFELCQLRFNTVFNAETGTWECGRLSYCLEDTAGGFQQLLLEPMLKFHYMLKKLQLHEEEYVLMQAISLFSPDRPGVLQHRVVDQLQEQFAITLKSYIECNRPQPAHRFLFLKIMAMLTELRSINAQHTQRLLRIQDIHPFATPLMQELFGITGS
# prepuberal gilts = prepuberal gilts fed diets containing 1-5 ppm ZEN; Osweiler; cited from earlier work
# miR-7 = conditions: ovariectomized pigs; intraperitoneal injection of 112.5 mg ZEN per day; He et al. 2018; cited from earlier work
# weaned female piglets = assay: Feeding trial in weaned female piglets: vulva surface, reproductive tract weight, body weight; type: in vivo, pig; conditions: for reproductive tract weight relative to body weight, average (±SD): [reproductive tract (in grams)/body weight (in kg)]*100; for increase of vulva surface compared to the control group: d 26
# Description: Weaned female piglets (sow: Landrace×Large White, boar: Pietrain; 30+/−2 days old) were obtained from a local producer and individually tagged. Piglets were housed in slatted floor pens under controlled environmental conditions. After an acclimatization period of seven days, twenty-four female piglets were selected based on both body weight and vulva size, and allocated to one of four groups (6 animals/group). Piglets received either blank feed (negative control; Ctrl) or feed contaminated with ZEN in three increasing concentrations (ZEN low: 0.17 mg/kg diet; ZEN medium: 1.5 mg/kg diet; ZEN high: 4.6 mg/kg diet). During the 28-day experimental period, each treatment group was given free access to water and the assigned diet. The pigs were observed daily and weighed weekly.
# Diets were manufactured at BIOMIN AN (Herzogenburg, Austria), and formulated according to the energy and amino acid requirements for piglets. Four different batches were prepared, one control batch and three batches artificially contaminated with ZEN (Fermentek LTD, Israel; purity >99.2%). Homogenous distribution of ZEN within the diets was achieved by preparation of maltodextrin premixes, which contained appropriate amounts of ZEN and were added to the basal feed at an inclusion rate of 0.9% (w/w). Final ZEN concentrations were verified by HPLC-MS (Romer Labs GmbH) and confirmed.
# Blood was collected weekly (d 0, 6, 14, 21 and 28) from individual animals by punctuation of the vena cava cranialis (Primavette® EDTA, Kabe Labortechnik GmbH, Nümbrecht-Elsenroth, Deutschland). After centrifugation (1500×g, 20 min), serum samples were stored at −80° C. for later analysis. Vulva length and width were measured at regular intervals with a caliper to determine the dietary ZEN effects. The vulva area was calculated as vulva length×vulva width, as previously reported (Jiang et al. 2011. Journal of animal science, 89, 3008-3015). Eight measurements were done per piglet over the experimental period.
# After 28 days of dietary exposure to the experimental diets, pigs were anesthetized by intramuscular injection of ketamine (0.1 mL/kg body weight (b.w.) Narketan®, Vétoquinol GmbH, Ravensburg, Germany) and azaperone (0.03 mL/kg b.w.; Stresnil®, Janssen-Cilag, Neuss, Germany). Subsequently, animals were euthanized by intracardial injection of T61® (Intervet, UnterschleiBheim, Germany; 0.1 ml/kg b.w.). The whole reproductive tract was collected, weighed and examined for any clinical signs. Small pieces of the corpus uteri and the mid-jejunum were dissected, placed into 1 mL of RNAlater, and stored overnight at 4° C. The next day, all the tissue samples were transferred to −80° C. for long-term storage, and until processed for transcriptomics analysis.
# estrogen receptors β = estrogen receptors β (Homo sapiens, UniProt Q92731); conditions: Zinedine et al. 2007; cited from earlier work
# Chain of estrogen receptors β (Q92731 whole entry): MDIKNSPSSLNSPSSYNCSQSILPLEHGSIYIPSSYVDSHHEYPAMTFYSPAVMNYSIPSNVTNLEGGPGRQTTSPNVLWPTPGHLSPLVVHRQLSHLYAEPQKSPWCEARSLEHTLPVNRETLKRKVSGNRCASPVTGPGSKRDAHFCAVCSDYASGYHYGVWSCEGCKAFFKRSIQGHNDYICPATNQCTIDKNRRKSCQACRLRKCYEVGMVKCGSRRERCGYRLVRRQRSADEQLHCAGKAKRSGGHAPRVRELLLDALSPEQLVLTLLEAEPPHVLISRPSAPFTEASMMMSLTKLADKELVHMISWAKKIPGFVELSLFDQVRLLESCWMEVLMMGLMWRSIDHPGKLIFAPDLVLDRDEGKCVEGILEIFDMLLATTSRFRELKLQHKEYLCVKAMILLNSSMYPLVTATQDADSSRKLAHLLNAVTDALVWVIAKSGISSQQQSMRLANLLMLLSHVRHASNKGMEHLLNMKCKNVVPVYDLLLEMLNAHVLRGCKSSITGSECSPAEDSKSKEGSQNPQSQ
# Chain of estrogen receptors α (P03372 whole entry): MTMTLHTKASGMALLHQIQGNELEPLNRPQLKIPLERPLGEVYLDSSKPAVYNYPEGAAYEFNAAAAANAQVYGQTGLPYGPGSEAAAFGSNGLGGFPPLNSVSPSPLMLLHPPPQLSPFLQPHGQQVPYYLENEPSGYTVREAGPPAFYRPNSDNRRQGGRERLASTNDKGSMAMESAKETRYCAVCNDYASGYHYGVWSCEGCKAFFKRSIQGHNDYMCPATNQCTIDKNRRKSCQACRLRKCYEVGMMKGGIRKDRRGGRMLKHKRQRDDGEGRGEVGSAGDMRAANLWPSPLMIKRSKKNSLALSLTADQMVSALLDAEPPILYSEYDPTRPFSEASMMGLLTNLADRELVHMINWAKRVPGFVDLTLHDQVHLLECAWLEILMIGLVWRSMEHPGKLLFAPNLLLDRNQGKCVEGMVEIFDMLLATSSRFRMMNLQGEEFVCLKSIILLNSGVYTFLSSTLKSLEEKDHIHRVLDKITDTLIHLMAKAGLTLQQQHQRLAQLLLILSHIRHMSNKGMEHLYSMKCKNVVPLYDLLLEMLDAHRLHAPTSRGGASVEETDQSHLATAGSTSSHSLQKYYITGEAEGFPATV
smiles,measurement,setting,value
"C[C@H]1CCCC(=O)CCC/C=C/c2cc(O)cc(O)c2C(=O)O1 [ZEN, (2E,11S)-15,17-dihydroxy-11-methyl-12-oxabicyclo[12.4.0]octadeca-1(18),2,14,16-tetraene-7,13-dione]",acute toxicity,[1],low
same,agonist action on estrogen receptor α,estrogen receptors α,full
same,action on pregnane X receptor,pregnane X receptor,activates
same,mammary gland development,prepuberal gilts,triggered
same,expression of miR-7 in pituitary tissue,miR-7,increase
same,days of exposure after which vulva surface was significantly increased,weaned female piglets; ZEN high (4.6 mg/kg diet),six
same,"reproductive tract weight relative to body weight, average (±SD)","weaned female piglets; ZEN high (4.6 mg/kg diet), 28 days",353.4±110.6
same,increase of vulva surface compared to the control group,weaned female piglets; ZEN high (4.6 mg/kg diet),+230%
same,"reproductive tract weight relative to body weight, average (±SD)","weaned female piglets; ZEN low (0.17 mg/kg diet), 28 days",55.8±17.2
same,days of exposure after which vulva surface was significantly increased,weaned female piglets; ZEN medium (1.5 mg/kg diet),thirteen
same,"reproductive tract weight relative to body weight, average (±SD)","weaned female piglets; ZEN medium (1.5 mg/kg diet), 28 days",121.4±43.4
same,increase of vulva surface compared to the control group,weaned female piglets; ZEN medium (1.5 mg/kg diet),+90%
same,effect on the body weight of the piglets,"weaned female piglets; independent of the concentration (0.17-4.6 mg/kg diet), 28 days",no effect
same,agonist action on estrogen receptor β,estrogen receptors β,partial agonist
